From US20260216239A1 (Arizona Board of Regents on Behalf of the University of …, priority 2020, published 2026)
Read-outs that look alike come from different tables or passages of the source.

Test system: human plasma
Format: biochemical
Method: Given that the only compounds present with anions different from RuCl3 potentially available to displace Cl in the PBS used was KH2PO4 (1.5 mM) and Na2HPO4 (8.1 mM), a comparison of the effects of 1 and 10 μM RuCl3 (final concentration) dissolved in dH2O or PBS was performed in plasma as a 1% addition (v/v) with coagulation assessed via thrombelastography.
The volumes of subsequently described plasmatic and other additives summed to a final volume of 360 μL. Samples were composed of 320 μL of plasma; 16.4 μL of PBS, 20 μL of 200 mM CaCl2), and 3.6 μL of PBS, RuCl3, or venom solution mixture, which were pipetted into a disposable cup in a Thrombelastograph® hemostasis system (Model 5000, Haemonetics Inc., Braintree, MA, USA) at 37° C., and then rapidly mixed by moving the cup up against and then away from the plastic pin five times. The PBS, RuCl3, or venom solution mixtures was always the last constituent added prior to mixing and data collection. The following viscoelastic parameters described previously (see, Nielsen, V. G.; et al., Biometals 2016, 29, 913-919; Nielsen, V. G.; Losada, P. A. Basic Clin. Pharmacol. Toxicol. 2017, 120, 207-212; Nielsen, V. G.; Frank, N. J. Thromb. Thrombolysis 2019, 47, 533-539; Nielsen, V. G.; Bazzell, C. M. J. Thromb. Thrombolysis 2017, 43, 203-208; Nielsen, V. G.; Matika, R. W. Hum. Exp. Toxicol. 2017, 36, 727-733; Nielsen, V. G.; et al., Toxins 2018, 10, 322; Nielsen, V. G.; et al., Biometals 2018, 31, 51-59; Nielsen, V. G.; Frank, N. et al., Biometals 2018, 31, 951-959; Nielsen, V. G.; et al., Toxins 2019, 11, 94; Nielsen, V. G.; Frank, N. Hum Exp. Toxicol. 2019, 38, 216-226; Nielsen, V. G. J. Thromb. Thrombolysis 2019, 48, 256-262; Nielsen, V. G.; et al., Blood Coagul. Fibrinolysis 2019, 30, 379-384; Nielsen, V. G. J. Thromb. Thrombolysis 2019, 47, 73-79) were measured: time to maximum rate of thrombus generation (TMRTG): this is the time interval (minutes) observed prior to maximum speed of clot growth; maximum rate of thrombus generation (MRTG): this is the maximum velocity of clot growth observed (dynes/cm^2/s); and total thrombus generation (TTG, dynes/cm^2), the final viscoelastic resistance observed after clot formation. Data were collected until the clot strength reached its final plateau (maximum amplitude) that was stable for 3 min.
Thus, experiments wherein RuCl3 was dissolved in either dH2O or PBS were conducted with the final concentration of RuCl3 in plasma being 1 or 10 μM. Data were collected until maximum amplitude was observed.
Specific volumes of subsequently described plasma and chemical additives varied by condition but summated to 360 μl. Sample composition consisted of 320 μl of plasma; 16.4 μl of PBS, 20 μl of 200 mM CaCl2, and 3.6 μl of one of five subsequently described solutions, which were placed into a disposable cup in a computer-controlled Thrombelastograph® hemostasis system (Model 5000, Haemonetics Inc., Braintree, MA, USA) at 37° C., and then rapidly mixed by moving the cup up against and then away from the plastic pin five times before leaving the mixture between the cup and pin.

[1] = 10 vs 1 μM RuCl3 (final) dissolved in PBS
[2] = 10 vs 1 μM RuCl3 (final) dissolved in dH2O

[Cl][Ru]([Cl])[Cl] [RuCl3, ruthenium(III) chloride]
increase in MRTG values: 37-61%
maximum rate of thrombus generation (MRTG) (1 μM RuCl3 dissolved in PBS vs control conditions, preliminary investigation): increased
total thrombus generation (TTG) (1 and 10 μM RuCl3 in dH2O or PBS, interaction of RuCl3 and fluid): decreased
maximum rate of thrombus generation (MRTG) [1]: increase
time to maximum rate of thrombus generation (TMRTG) [1]: significantly decrease
maximum rate of thrombus generation (MRTG) [2]: increase
time to maximum rate of thrombus generation (TMRTG) [2]: significant decrease
plasmatic TMRTG or TTG values (RuCl3 1 μM final in water or PBS vs plasma without RuCl3): no significant differences
